By melting point is commonly meant the temperature of the solid-liquid transition.

For `O=C(NCc1ccc(Cl)cc1)c1noc2ccc(C#CCO)cc2c1=O`, the melting point lay in the range of 117 to 120 °C.
For `CN1c2ccc(C#CCO)cc2C(O)=C(C(=O)NCc2ccc(Cl)cc2)S1(=O)=O` the value was 167 to 168 °C.
For `O=C(NCc1ccc(Cl)cc1)c1ccc2sc(CN3CCOCC3)cc2c1O` the value was 200 °C; for `O=C(NCc1ccc(Cl)cc1)c1cnc2ccc(C#CCO)cn2c1=O`, 179 to 181 °C.
For `O=C(NCc1ccc(Cl)cc1)c1nn(-c2ccccc2)c2sc(CN3CCOCC3)cc2c1=O` the value was 182 to 184 °C; for `Cn1nc(C(=O)NCc2ccc(Cl)cc2)c(=O)c2cc(C#CCO)cnc21`, 201 to 206 °C; for `O=C(NCc1ccc(Cl)cc1)c1coc2ccc(C#CCO)cc2c1=O`, 185 to 186 °C.
For the compound `CN1N=C(C(=O)NCc2ccc(Cl)cc2)S(=O)(=O)c2cc(C#CCO)sc21`, the melting point is 98 °C (dec.).

Values taken from patent US6903097B2 (dated 2005).
